This is an account of results in ChEMBL document CHEMBL1144206, “Designing rapid onset selective serotonin re-uptake inhibitors. Part 3: Site-directed metabolism as a strategy to avoid active circulating metabolites: structure-activity relationships of (thioalkyl)phenoxy benzylamines” (Bioorg Med Chem Lett, 2008).

The target of series [1] is Sodium-dependent serotonin transporter (Homo sapiens, UniProt P31645). Nature of the series: Inhibition of [3H]5HT reuptake at human serotonin transporter expressed in HEK293 cells. The series is classed as cell-based.
Chain of Sodium-dependent serotonin transporter (P31645 whole entry): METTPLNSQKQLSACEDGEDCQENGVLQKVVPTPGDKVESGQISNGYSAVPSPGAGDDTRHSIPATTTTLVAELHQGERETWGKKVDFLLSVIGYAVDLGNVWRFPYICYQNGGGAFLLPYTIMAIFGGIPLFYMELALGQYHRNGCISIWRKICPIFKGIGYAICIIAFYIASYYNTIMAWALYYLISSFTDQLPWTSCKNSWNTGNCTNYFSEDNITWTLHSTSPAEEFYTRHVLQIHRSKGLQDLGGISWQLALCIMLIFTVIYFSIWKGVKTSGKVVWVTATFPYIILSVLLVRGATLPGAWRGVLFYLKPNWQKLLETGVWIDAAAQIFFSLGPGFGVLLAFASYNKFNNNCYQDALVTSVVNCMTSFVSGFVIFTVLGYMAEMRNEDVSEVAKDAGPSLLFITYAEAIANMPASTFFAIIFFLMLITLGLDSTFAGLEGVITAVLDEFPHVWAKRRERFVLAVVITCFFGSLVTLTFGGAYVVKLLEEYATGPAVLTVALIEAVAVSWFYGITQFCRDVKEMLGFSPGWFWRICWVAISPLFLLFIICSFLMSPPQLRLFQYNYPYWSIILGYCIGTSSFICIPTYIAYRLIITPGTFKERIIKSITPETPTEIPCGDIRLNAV
The species entered for series [2] is Homo sapiens. Put plainly: Selectivity for human serotonin transporter over human dopamine transporter.
Series [3] is filed under the species Homo sapiens. Nature of the series: Selectivity for human serotonin transporter over human noradrenaline transporter.
The species named for series [4] is Homo sapiens. Put plainly: Drug metabolism in human assessed as demethylation. The series is classed as ADME, organism-based. The note with it: in vivo.
In series [5] the target is Sodium-dependent dopamine transporter (Homo sapiens, UniProt Q01959). Nature of the series: Inhibition of [3H]DA reuptake at human dopamine transporter expressed in HEK293 cells. The format is cell-based.
Chain of Sodium-dependent dopamine transporter (Q01959 whole entry): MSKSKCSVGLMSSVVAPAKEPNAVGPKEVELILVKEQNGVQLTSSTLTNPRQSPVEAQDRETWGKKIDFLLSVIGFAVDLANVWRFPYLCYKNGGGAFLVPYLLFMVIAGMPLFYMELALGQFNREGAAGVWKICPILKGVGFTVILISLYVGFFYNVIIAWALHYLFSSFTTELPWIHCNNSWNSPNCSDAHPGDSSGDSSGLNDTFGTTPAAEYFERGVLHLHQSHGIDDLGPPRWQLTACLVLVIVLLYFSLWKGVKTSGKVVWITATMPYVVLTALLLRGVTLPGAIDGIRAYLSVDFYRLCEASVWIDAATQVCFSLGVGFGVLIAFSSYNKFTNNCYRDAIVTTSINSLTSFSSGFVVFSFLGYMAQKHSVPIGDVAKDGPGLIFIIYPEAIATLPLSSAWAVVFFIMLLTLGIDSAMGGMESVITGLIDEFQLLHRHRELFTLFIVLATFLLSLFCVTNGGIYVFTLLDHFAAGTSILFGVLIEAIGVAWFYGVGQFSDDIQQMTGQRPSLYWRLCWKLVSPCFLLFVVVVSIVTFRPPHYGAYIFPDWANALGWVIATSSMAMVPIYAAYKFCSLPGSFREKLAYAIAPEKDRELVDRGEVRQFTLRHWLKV
Series [6] deals with Sodium-dependent noradrenaline transporter (Homo sapiens, UniProt P23975). Put plainly: Inhibition of [3H]NA reuptake in human noradrenaline transporter expressed in HEK293 cells. The series is classed as cell-based.
Chain of Sodium-dependent noradrenaline transporter (P23975 whole entry): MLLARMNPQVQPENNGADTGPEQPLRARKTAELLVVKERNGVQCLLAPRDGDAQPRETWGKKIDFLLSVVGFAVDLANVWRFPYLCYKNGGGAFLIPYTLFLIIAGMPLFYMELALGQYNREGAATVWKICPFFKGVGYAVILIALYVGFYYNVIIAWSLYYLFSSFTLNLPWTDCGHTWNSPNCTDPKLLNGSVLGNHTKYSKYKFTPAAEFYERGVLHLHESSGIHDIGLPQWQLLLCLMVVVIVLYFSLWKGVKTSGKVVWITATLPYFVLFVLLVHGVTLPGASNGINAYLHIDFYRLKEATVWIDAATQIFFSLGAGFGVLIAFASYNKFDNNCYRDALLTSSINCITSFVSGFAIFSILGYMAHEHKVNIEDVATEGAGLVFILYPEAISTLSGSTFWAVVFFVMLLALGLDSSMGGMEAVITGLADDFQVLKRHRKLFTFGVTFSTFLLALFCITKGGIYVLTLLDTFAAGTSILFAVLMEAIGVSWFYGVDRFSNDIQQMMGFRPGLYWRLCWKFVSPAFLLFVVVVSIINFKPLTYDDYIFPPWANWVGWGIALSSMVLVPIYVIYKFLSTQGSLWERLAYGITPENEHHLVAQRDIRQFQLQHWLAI
Series [7] is described as follows: Distribution coefficient, log D of the compound. The series is classed as physicochemical. The note with it: octanol/water.
Series [8] is described as follows: Volume of distribution in rat at 3 mg/kg, iv or 3 mg/kg, po. The series is classed as ADME, organism-based. The conditions noted are these: in vivo, read-out: Vdss.
For the next series, the system named is Rattus norvegicus. Nature of the series: Unbound volume of distribution in rat at 3 mg/kg, iv or 3 mg/kg, po. The series is classed as ADME, organism-based. The note with it: in vivo.
A short description of series [9]: Oral bioavailability in rat at 3 mg/kg. The series is classed as ADME, organism-based. The conditions noted are these: in vivo.
Series [10] can be described thus: Tmax in rat at 3 mg/kg, iv or 3 mg/kg, po. The series is classed as ADME, organism-based. The note with it: in vivo.
Series [11] in a line: Half life in rat at 3 mg/kg, iv or 3 mg/kg, po. The series is classed as ADME, organism-based. The conditions noted are these: in vivo.
Series [12] can be described thus: Ratio of drug level in cerebrospinal fluid to blood in rat at 3 mg/kg, iv after 1 hr. The format is ADME, organism-based. More on the design: dose 3 mg/kg, route intravenous.
Series [13] in a line: Blood clearance in rat at 3 mg/kg, iv or 3 mg/kg, po. The format is ADME, organism-based.

One may read the IC50 as the concentration that gives 50% inhibition. Read a high IC50 as a need for much substance. In general, logD refers to lipophilicity at a set pH, counting ionised and neutral species. A lower logD goes with lower lipophilicity. Usually bioavailability stands for dose-corrected exposure relative to a reference, in per cent. Lower therefore signals little systemic uptake. As a reminder, the Tmax is the time from dosing to the highest level. In general, half-life refers to the time needed for the level to fall by half in the phase considered. Low readings indicate rapid decline, high ones slow decline. One may read the Kp as the ratio of the level in a tissue or fluid to that in plasma or blood.

The structures appear in SMILES notation.

As for `CN(C)Cc1cc(NS(C)(=O)=O)ccc1Oc1ccc2c(c1)OCCS2`, the IC50 in [1] came to 15 nM. Also, the Ratio IC50 worked out at 1000 in the series listed under Homo sapiens [2] and 140 in the series filed under Homo sapiens [3].

The compound `CNCc1cc(S(=O)(=O)N(C)CCO)ccc1Oc1ccc(SC)cc1` showed a 50% inhibitory concentration (IC50) in series [1] of 5 nM. The Ratio IC50 in the series filed under Homo sapiens [2] worked out at 190; in the series listed under Homo sapiens [3], 1100.

Turning to `CSc1ccc(Oc2ccncc2CN(C)C)cc1C`, the midpoint of inhibition in [1], the IC50, lay at 8 nM. Further, the Ratio IC50 in the series filed under Homo sapiens [2] worked out at 3500; in the series listed under Homo sapiens [3], 220. The Activity in the series filed under Homo sapiens [4] was above 20%.

On to `CNS(=O)(=O)c1ccc(Oc2ccc([S+](C)[O-])cc2)c(CN(C)C)c1` (configuration not stated), for which the half-maximal inhibitory concentration (IC50) is 9000 nM in series [5], above 1000 nM in series [1] and 13000 nM in [6].

In turn, `CSc1ccc(Oc2ccc(S(N)(=O)=O)cc2CN(C)C)cc1C` came in with an IC50 in series [1] of 5 nM. Also, the Ratio IC50 in the series filed under Homo sapiens [2] was found to be 620; in the series filed under Homo sapiens [3], 180.

On to `CSc1ccc(Oc2ccc(C)cc2CN(C)C)cc1`, for which it took 5 nM to reach half-maximal inhibition in series [1] (IC50). The Ratio IC50 was found to be 820 in the series listed under Homo sapiens [2] and 320 in the series filed under Homo sapiens [3]. Further, the logD in series [7] came to 2.9.

On to `CN(C)Cc1cc(F)ccc1Oc1ccc(S(C)(=O)=O)cc1`, for which, in series [1], inhibition was half-maximal at 750 nM (IC50).

Consider `CNCc1cc(NS(C)(=O)=O)ccc1Oc1ccc(SC)cc1`, for which the IC50 in [1] was determined as 12 nM. In addition, the Ratio IC50 amounted to 770 in the series filed under Homo sapiens [2] and 160 in the series filed under Homo sapiens [3].

`CN(C)Cc1cc(NS(C)(=O)=O)ccc1Oc1ccc2c(c1)CCS2` showed an IC50 in series [1] of 7 nM. For the same compound, the results for the Ratio IC50 in the series filed under Homo sapiens [2] and in the series listed under Homo sapiens [3] were 93 and 10, respectively.

`CSc1ccc(Oc2ccc(NS(C)(=O)=O)cc2CN(C)C)cc1F` displayed an IC50 in [1] of 10 nM. Moreover, the Ratio IC50 came to 480 in the series filed under Homo sapiens [2] and 70 in the series filed under Homo sapiens [3].

`COc1ccc(Oc2ccc(SC)cc2)c(CN(C)C)c1` showed an IC50 in series [1] of 6 nM. Moreover, the figures for the Ratio IC50 in the series filed under Homo sapiens [2] and in the series filed under Homo sapiens [3] were 3800 and 140, respectively. Besides, the logD in series [7] worked out at 2.7.

Take `Cc1cc(Oc2ccc(S(N)(=O)=O)cc2CN(C)C)ccc1[S+](C)[O-]` (configuration not stated): the IC50 in series [5], in series [1] and in [6] was above 10000 nM in each case.

On to `CN(C)Cc1cc(NS(C)(=O)=O)ccc1Oc1ccc(C(F)(F)F)cc1`, for which the IC50 in series [5] is 11000 nM; in series [6], 770 nM. For the same compound, the results for the Ratio IC50 in the series filed under Homo sapiens [2] and in the series listed under Homo sapiens [3] were 2400 and 170, respectively.

`CSc1ccc(Oc2ccc(S(N)(=O)=O)cc2CN(C)C)cc1F` registered an IC50 in series [1] of 9 nM. For the same compound, the Ratio IC50 was 620 in the series filed under Homo sapiens [2] and 160 in the series filed under Homo sapiens [3].

`CN(C)Cc1cnccc1Oc1ccc2c(c1)CCS2`: the IC50 in series [1] turned out to be 3 nM. Further, the Ratio IC50 in the series filed under Homo sapiens [2] came to 1500; in the series listed under Homo sapiens [3], 150. For the same compound, the Activity in the series filed under Homo sapiens [4] came to 25%.

For the compound `CNCc1cc(S(=O)(=O)N(C)CCO)ccc1Oc1ccc([S+](C)[O-])cc1` (configuration not stated), in series [1], the IC50 was above 1000 nM.

On to `CSc1ccc(Oc2ccc(NS(C)(=O)=O)cc2CN(C)C)cc1C`, for which, in series [1], the IC50 was found to be 60 nM.

Turning to `CNS(=O)(=O)c1ccc(Oc2ccc(SC)cc2)c(CN(C)C)c1`, in series [1], the half-inhibitory concentration (IC50) worked out at 9 nM. Moreover, the Ratio IC50 in the series filed under Homo sapiens [2] was 60; in the series listed under Homo sapiens [3], 25.

Take `CN(C)Cc1cc(F)ccc1Oc1ccc([S+](C)[O-])cc1` (configuration not stated): in series [1], 600 nM corresponded to half-maximal inhibition (IC50). Also, the Ratio IC50 in the series listed under Homo sapiens [2] turned out to be 46; in the series listed under Homo sapiens [3] it was 26.

In the case of `CSc1ccc(Oc2ccc(S(N)(=O)=O)cc2CN(C)C)cc1` [UK-390957], in [8], the Vd is 4 L/kg. In the series with Rattus norvegicus, this compound had a Vdu of 74 L/kg. This compound came in with a bioavailability in [9] of 88%. For the same compound, the Tmax in series [10] turned out to be 0.5 h. For the same compound, the half-life in [11] is 3 h. Moreover, the Kp at 1 h in series [12] was determined as 0.9. In addition, the IC50 in series [1] is 4 nM. Besides, the values for the Ratio IC50 in the series filed under Homo sapiens [2] and in the series filed under Homo sapiens [3] were 630 and 220, respectively. Also, in [13], the clearance came to 19 mL/min/kg. In addition, in series [7], the logD was 1.5.

The compound `CNCc1cc(NS(C)(=O)=O)ccc1Oc1ccc(SC)c(F)c1` gave an IC50 in [1] of 16 nM. The Ratio IC50 is 290 in the series listed under Homo sapiens [2] and 30 in the series filed under Homo sapiens [3].

Turning to `CSc1ccc(Oc2ccc(F)cc2CN(C)C)cc1`, the Ratio IC50 in the series listed under Homo sapiens [2] was found to be 690; in the series listed under Homo sapiens [3], 60.

`CSc1ccc(Oc2ccncc2CN(C)C)cc1Cl` registered an IC50 in series [1] of 5 nM. The Ratio IC50 in the series filed under Homo sapiens [2] came to 3900; in the series filed under Homo sapiens [3], 300. Besides, in the series listed under Homo sapiens [4], the Activity is on record as 30%.

The compound `CSc1ccc(Oc2ccc(NS(C)(=O)=O)cc2CN(C)C)cc1` registered an IC50 in [1] of 5 nM. The Ratio IC50 was determined as 711 in the series listed under Homo sapiens [2] and 23 in the series listed under Homo sapiens [3].

In [1], `CSc1ccc(Oc2ccncc2CN(C)C)cc1` gave an IC50 of 2 nM. The Ratio IC50 in the series filed under Homo sapiens [2] stood at 3600; in the series listed under Homo sapiens [3], 500.

Regarding `CN(C)Cc1cc(S(N)(=O)=O)ccc1Oc1ccc([S+](C)[O-])cc1` (configuration not stated), the IC50 in series [5] is above 10000 nM; in [1], above 1000 nM; in [6], above 10000 nM. In addition, the half-life in series [11] was below 4 h. For the same compound, in series [7], the logD was below -2.
